Assay [1] has as its target T1, interaction of purified GTP-K-Ras 4B and GDP-RhoA (Homo sapiens, UniProt P61586, G12V).
T1 construct: made in house; host or cells: Dictyostelium cells
The experiment in a line: In vitro protein-protein interaction assay (GFP-Trap pull-down, Western blotting). In kind it is binding. To be noted: peptide 50, 250 and 1250 nM, dose-dependent, FLAG-K-Ras 4BG12V pulled down with GFP-RhoA. On the procedure:
(§1) FIG. 3A is the amino acid sequence of the C-terminal region of K-Ras 4B—the helix α5 is highlighted and K-tetracosapeptide is underlined. Its predicted structure is shown on the right: positively- and negatively-charged surfaces are highlighted. FLAG-tagged GTP-bound K-Ras 4BG12V was incubated with GDP-loaded GFP-RhoA in the presence of K-tetracosapeptide (K-TC) or a scrambled peptide (50, 250, and 1250 nM). GFP-RhoA was pulled down using GFP-Trap beads. The pellets were analyzed by Western blotting using antibodies to FLAG and GFP (FIG. 3B) and quantified by band intensity (FIG. 3C). Bars are mean±SD (n=3). […] S473 AKT phosphorylation was analyzed by Western blotting (FIG. 3E) and band intensity of phospho-AKT relative to total AKT was quantified (FIG. 3F). […] S473 AKT phosphorylation was analyzed by Western blotting. (FIG. 3G) and band intensity was quantified (FIG. 3H). […]
FLAG-tagged K-Ras4A and K-Ras 4B were eluted from anti-FLAG beads by incubation with 1 M arginine at room temperature for 5 min. Amounts of purified proteins were quantified on CBB-stained SDS-PAGE gels using ImageJ software with BSA as a standard. […] GFP-Trap beads were washed three times in 1 mM MgCl2, 100 mM potassium acetate, 25 mM HEPES (pH 7.4), and bound proteins were analyzed by Western blotting.

In assay [2] the target is T2, KARATE (mTORC2 mixed with GTP-bound K-Ras 4BG12V and GDP-loaded RhoA) (Homo sapiens, UniProt P61586, G12V).
T2 construct: made in house; host or cells: K-Ras 4B G12V and RhoA from Dictyostelium cells; AKT1 purchased (Sigma, 14-279)
The experiment in a line: In vitro reconstitution of mTORC2-mediated AKT phosphorylation. In kind it is biochemical. To be noted: S473 AKT phosphorylation by Western blotting; peptide 50, 250 and 1250 nM. On the procedure:
as §1
In vitro reconstitution of mTORC2-mediated AKT phosphorylation The kinase activity of mTORC1 and mTORC2 was measured as described previously by Huang, Sarbassov dos, and Senoo (Methods Mol Biol 821, 75-86(2012), Methods Mol Biol 821, 59-74(2012), and Nat Cell Biol 21, 867-878(2019), respectively) with some modifications. […] AKT phosphorylation was detected by Western blotting with anti-phospho-AKT (serine 473) antibodies (Cell Signaling, 9271).

The test system of assay [3] is S473 AKT phosphorylation in HEK293 cells. The experiment in a line: Insulin-induced AKT phosphorylation in HEK293 cells. In kind it is cell-based, human. The conditions noted are these: peptide included during serum starvation and insulin stimulation (100 nM, 30 min), dose-dependent. How it is done: as §1, with “(n=3). FIG. 3D is a schematic of the interaction of K-Ras 4B and RhoA in the presence of K-tetracosapeptide (K-TC) or a scrambled peptide.” for “(n=3).”, “3F). Bars are mean±SD (n=3). After serum starvation, HEK293 cells were stimulated by insulin.” for “3F).”
Insulin-induced AKT phosphorylation in cells HEK293 cells and differentiated 3T3-L1 adipocytes were washed with serum-free DMEM and incubated with serum-free DMEM for 5 h. […] After clarification, cell lysates were analyzed by Western blotting.

The subject of assay [4] is phosphorylation of AKT and TBC1D4 in 3T3-L1 adipocytes. The experiment in a line: Insulin-induced phosphorylation of AKT and TBC1D4 in 3T3-L1 adipocytes. In kind it is cell-based, mouse. The conditions noted are these: differentiated WT 3T3-L1 adipocytes; peptide pre-treatment 5 h, 100 nM insulin 30 min. How it is done: (§2) Differentiation into adipocytes was induced in WT 3T3-L1 cells and RhoA-KO 3T3-L1 cells expressing the indicated FLAG-RhoA proteins. Differentiation was analyzed Western blotting using anti-adiponectin antibodies (FIG. 6A) and band intensity was quantified (FIG. 6B). Bars are mean f SD (n=3). FIG. 6C is images of WT and RhoA-KO 3T3-L1 cells stained with oil red O before and after induction of the differentiation. FIG. 6D is images RhoA-KO 3T3-L1 cells expressing the indicated RhoA proteins and analyzed by oil red O stain after induction of differentiation. Differentiated WT 3T3-L1 adipocytes were stimulated with insulin after serum starvation in the presence of TAT-K-tetracosapeptide or a TAT peptide. Phosphorylation of AKT and TBC1D4 was analyzed by Western blotting (FIG. 6E) and quantification of band intensity (FIG. 6F). Bars are mean±SD (n=3). […]
(§3) Insulin-induced AKT phosphorylation and translocation of GLUT4 in 3T3-L1 adipocytes To examine AKT phosphorylation, differentiated WT 3T3-L1 adipocytes were incubated in serum-free DMEM medium for 5 h and stimulated with 100 nM insulin for 30 min. […] After clarification, cell lysates were analyzed by Western blotting using antibodies to AKT (Cell Signaling, 9272) and phospho-AKT (Serine 473) (Cell Signaling, 9271). […]

Assay [5] deals with transport of GLUT4-GFP to the plasma membrane in 3T3-L1 adipocytes. In words: Insulin-induced translocation of GLUT4-GFP in 3T3-L1 adipocytes (confocal microscopy). In kind it is cell-based, mouse. To be noted: 3T3-L1 adipocytes carrying GLUT4-GFP; insulin 30 min after serum starvation. On the procedure:
as §2, §3

T2 sequence (P61586 whole entry G12V): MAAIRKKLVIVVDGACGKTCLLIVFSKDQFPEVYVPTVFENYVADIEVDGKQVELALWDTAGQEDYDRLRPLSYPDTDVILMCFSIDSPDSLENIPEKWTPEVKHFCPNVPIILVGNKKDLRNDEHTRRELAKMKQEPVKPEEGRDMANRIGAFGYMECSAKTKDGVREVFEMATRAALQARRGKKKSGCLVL
T1 sequence (P61586 whole entry G12V): as above

Turning to “GVDDAFYTLVREIRKHKEKMSKDG [K-tetracosapeptide, peptide of 24 amino acids corresponding to the helix α5 in K-Ras 4B]”, in assay [1], the “effect on the interaction of purified GTP-K-Ras 4B and GDP-RhoA” value is listed as “greatly decreased”. The “effect on AKT phosphorylation in vitro” value in assay [2] is on record as “blocked”.
For “GRKKRRQRRRPQGVDDAFYTLVREIRKHKEKMSKDG [TAT-K-tetracosapeptide, K-tetracosapeptide fused to a cell-permeable TAT peptide]”, the “effect on insulin-stimulated AKT phosphorylation in cells” value in assay [3] is listed as “blocked in a dose-dependent manner”. For the same sequence, in assay [4], the “effect on insulin-induced phosphorylation of AKT” value was “blocked” and the “effect on insulin-induced phosphorylation of TBC1D4” value was “blocked”. Besides, the “effect on insulin-induced transport of GLUT4-GFP to the plasma membrane” value in assay [5] was “strongly inhibited”.

These data come from US20240294587A1, “K-RAS INHIBITOR” (THE JOHNS HOPKINS UNIVERSITY, priority 2021, published 2024).
